Measured values taken from patent US12403079B2, “Ingredient in sunscreen compositions” (MAGIC BLUE, LLC, priority 2019, dated 2025).

Legend:
[1] = scale of 1-10 (with 10 being the worst); cited from earlier work
[2] = tested on: primary human skin cells (skin fibroblast cells or primary keratinocytes); test: in vitro 2D skin model, cell proliferation; assay type: cell-based; conditions: after 13 days; for cell proliferation: 100 nM and 1 μM, relative to control treatment
Description: Methylene Blue: [7-(dimethylamino) phenthiazin-3-ylldene]-dImethylazinium chloride, or more simply as methylthloninium chloride. Also included are all hydrates, particularly, the hydrate or trihydrate of Methylene Blue as well as all dermatologically acceptable salts thereof, such as the chloride salt. All forms of Methylene Blue are also abbreviated herein as MB and are to be understood as such. about: as used herein means±10%. […] Examples of conventional sunscreen excipients or adjuvants, include, for example, xanthan gums, corn starch, film-forming polymers and/or copolymers, glycerin, emulsifiers, moisturizing agents and cosmetic ingredients. Further examples of conventional sunscreen composition excipients or adjuvants are described in U.S. Pat. Nos. 9,149,664; 8,128,913; 9,050,475 and 6,800,274, all of which are incorporated herein by reference in the entirety. The present invention specifically avoids the inclusion of Oxybenzone and/or Octinoxate in the aforementioned U.S. patents which are used as UVA and/or UVB absorbers, and uses instead, Methylene Blue or any of the hydrates or dermatologically-acceptable salts thereof. Further, it is explicitly contemplated that conventional inorganic compounds, such as zinc oxide and/or titanium oxide, for example, may be used in formulating the sunscreen composition of the present invention. Also, polymers and/or copolymers that are conventionally used as sunscreen stabilizer emollients, such as polyester-8, may also be used in the present sunscreen formulations. Dermatologically-acceptable salts of MB: includes all salts recognized as safe for application to human skin, but generally, the chloride and/or hydrochloride salts are preferred. In vitro 2D skin test: This test is described in by Xiong, et al. in Scientific Reports 7, Article number: 2475 (2017), using primary human skin cells (skin fibroblast cells or primary keratinocytes). Sunscreen agents excluded from the present invention: the conventional sunscreen compounds Oxybenzone and Octinoxate are explicitly excluded from this invention. However, other conventional FDA-approved UVA and UVB absorbers may be used in combination with MB, its hydrates or salts in the present invention. SPF: means a “sun protection factor” defined at 21 USC 352.1 et seq. using the term MED, which in turn means Minimal Erythema Dose, which is defined as the quantity of erythema-effective energy (expressed in Joules per square meter) required to produce the first perceptible redness reaction with clearly defined borders. […]

[3] = tested on: primary human skin cells (skin fibroblast cells or primary keratinocytes); test: in vitro 2D skin model, cellular ROS levels by MitoSOX; assay type: cell-based; conditions: 100 nM and 1 μM, 0.1% DMSO solvent control
Description: Methylene Blue: [7-(dimethylamino) phenthiazin-3-ylldene]-dImethylazinium chloride, or more simply as methylthloninium chloride. Also included are all hydrates, particularly, the hydrate or trihydrate of Methylene Blue as well as all dermatologically acceptable salts thereof, such as the chloride salt. All forms of Methylene Blue are also abbreviated herein as MB and are to be understood as such. about: as used herein means±10%. […] Examples of conventional sunscreen excipients or adjuvants, include, for example, xanthan gums, corn starch, film-forming polymers and/or copolymers, glycerin, emulsifiers, moisturizing agents and cosmetic ingredients. Further examples of conventional sunscreen composition excipients or adjuvants are described in U.S. Pat. Nos. 9,149,664; 8,128,913; 9,050,475 and 6,800,274, all of which are incorporated herein by reference in the entirety. […] SPF: means a “sun protection factor” defined at 21 USC 352.1 et seq. using the term MED, which in turn means Minimal Erythema Dose, which is defined as the quantity of erythema-effective energy (expressed in Joules per square meter) required to produce the first perceptible redness reaction with clearly defined borders. […]

[4] = spectrophotometric UV absorption of dilute solutions; assay type: physicochemical; conditions: 1 mM, MB versus BP-3
Procedure: In this example, the absorption characteristics based on spectrophotometric analysis of various dilute solutions of each of MB and oxybenzone (BP-3) were measured and then compared. The solution concentrations for each of MB and BP-3 were 100 μM and 1 mM.

human keratinocyte cells = test: cell death of keratinocytes after harsh UVB irradiation; assay type: cell-based; conditions: 5 days, versus control human keratinocyte cells
human skin fibroblasts [5] = test: gamma H2AX levels (DNA double strand breakage) after UVB exposure; assay type: cell-based; conditions: 24 hours after UVB exposure, 100 nM pre-treatment; control group doubled
Procedure: (§1) In this example, the protection ability of MB against UVB radiation was measured. […] Here, a preliminary study was conducted in which human skin fibroblasts were pre-treated with MB at 100 nM concentration for two weeks and then exposed to 0, 5, 10 and 20 seconds of UVB radiation at 1100 mW/cm^2.
Specifically, the histone H2AX Is phosphorylated to a gamma form (gamma H2AX) upon DNA double strand breakage and levels of gamma H2AX positively correlate with the presence of DNA breaks, which are commonly generated by UVB radiation.

Umbrella xenia = test: soft coral exposure in seawater for one week; assay type: in vivo; conditions: 0.5 and 1.0 μM in seawater
Description: Samples of Umbrella xenia were placed in individual containers filled with seawater plus any one of MB or Oxybenzone or Octinoxate for one week. All of the containers were otherwise under the exact same temperature, lighting and water flow conditions. Separate containers were used for both “Control” (nothing added) and DMSO, also added in the same two concentrations specified below for MB, Oxybenzone and Octinoxate.

human skin fibroblasts [6] = test: recovery of MB-pretreated skin fibroblasts after UVB radiation (cell viability, survival); assay type: cell-based; conditions: 100 nM pre-treatment for two weeks
Procedure: as §1, with “mW/cm^2. In this preliminary study, both groups, i.e., MB-exposed skin cells and the control group, were exposed to the same amount of UVB radiation.” for “mW/cm^2.”

SMILES	EWG hazard score [1]	cell proliferation [2]	cellular reactive oxygen species (ROS) levels by MitoSOX [3]	protection against UVB radiation (absorption) [4]	rescue of cell death after harsh UVB irradiation (FIG. 6) (human keratinocyte cells)	levels of gamma H2AX (human skin fibroblasts [5])	effects on soft corals (Umbrella xenia)	recovery after UVB radiation (cell viability) (human skin fibroblasts [6]; UVB 0-20 seconds at 1100 mW/cm^2, five days recovery, versus control group)	survival after high dosage-UVB radiation (imaging analysis) (human skin fibroblasts [6]; versus control samples)	cell number reading (FIG. 1) ([2]; 100 nM)	cell number reading (FIG. 1) ([2]; 1 μM)
COc1ccc(C(=O)c2ccccc2)c(O)c1 [BP-3]	8	no changes in growth	elevated ROS levels	–	–	–	–	–	–	–	–
CN(C)c1ccc2nc3ccc(=[N+](C)C)cc-3sc2c1 [MB, [7-(dimethylamino)phenthiazin-3-ylldene]-dImethylazinium chloride]	–	increase in cell proliferation	dosage-dependent reduction in ROS	superior protection against UVB radiation	partially rescue cell death	reduced levels of gamma H2AX	No adverse effects	significantly superior recovery	superior survival	greatest cell number reading	somewhat less
